From ChEMBL document CHEMBL1150908, “Mollenines A and B: new dioxomorpholines from the ascostromata of Eupenicillium molle” (1998)
The source made the active and inactive calls. The rule behind the calls is not given here.

What was measured:
[1] = Cytotoxicity against human NCI60 cells; format: functional
[2] = tested on: Bacillus subtilis; assay: Antimicrobial activity against Bacillus subtilis at 200 ug/disk; format: functional, organism-based

In the case of CC(C)=CC[C@@]12C[C@@H]3C(=O)O[C@H](CC(C)C)C(=O)N3[C@@H]1Nc1ccccc12 [MOLLENINE A], the GI50 [1] was 31 µM and the Activity [2] was “Active”.
